Measured values from the NIST ThermoML archive (doi:10.1021/je800658v).
± gives the expanded uncertainty stated by the source.

Assay: activity coefficient (dimensionless); of the first substance listed, at infinite dilution; xn = mol fraction of the nth substance listed
Settings: Liquid, x1 = 0
[1] = 303.35 K, inverse gas chromatography
[2] = 312.55 K, inverse gas chromatography
[3] = 322.55 K, inverse gas chromatography
[4] = 332.55 K, inverse gas chromatography

SMILES | activity coefficient [1] | activity coefficient [2] | activity coefficient [3] | activity coefficient [4] | activity coefficient (303.35 K, Chromatography) | activity coefficient (312.55 K, Chromatography) | activity coefficient (322.55 K, Chromatography) | activity coefficient (332.55 K, Chromatography)
Cc1ccccc1C [1,2-dimethylbenzene] + CCCCn1cc[n+](C)c1.F[B-](F)(F)F | 6.53 ± 0.39 | 5.55 ± 0.33 | 5.83 ± 0.35 | 4.77 ± 0.29 |  |  |  | 
Cc1cccc(C)c1 [1,3-dimethylbenzene] + CCCCn1cc[n+](C)c1.F[B-](F)(F)F | 7.81 ± 0.47 | 7.4 ± 0.44 | 6.89 ± 0.41 | 6.56 ± 0.39 |  |  |  | 
Cc1ccc(C)cc1 [1,4-dimethylbenzene] + CCCCn1cc[n+](C)c1.F[B-](F)(F)F | 7.36 ± 0.44 | 6.68 ± 0.4 | 6.71 ± 0.4 | 6.26 ± 0.38 |  |  |  | 
C1COCCO1 [1,4-dioxane] + CCCCn1cc[n+](C)c1.F[B-](F)(F)F | 1.26 ± 0.08 | 1.24 ± 0.07 | 1.28 ± 0.08 | 1.22 ± 0.07 |  |  |  | 
C#CCCCCC [1-heptyne] + CCCCn1cc[n+](C)c1.F[B-](F)(F)F | 13.2 ± 0.79 | 12.5 ± 0.75 | 11.9 ± 0.72 | 11.7 ± 0.7 |  |  |  | 
CCC[N+](=O)[O-] [1-nitropropane] + CCCCn1cc[n+](C)c1.F[B-](F)(F)F | 1.54 ± 0.09 | 1.46 ± 0.09 | 1.46 ± 0.09 | 1.5 ± 0.09 |  |  |  | 
OCC(F)(F)F [2,2,2-trifluoroethanol] + CCCCn1cc[n+](C)c1.F[B-](F)(F)F | 0.36 ± 0.02 | 0.33 ± 0.02 | 0.32 ± 0.02 | 0.3 ± 0.02 |  |  |  | 
CC(C)CC(C)(C)C [2,2,4-trimethylpentane] + CCCCn1cc[n+](C)c1.F[B-](F)(F)F | 321 ± 19 | 231 ± 14 | 198 ± 12 | 272 ± 16 |  |  |  | 
CC(C)CO [2-methyl-1-propanol] + CCCCn1cc[n+](C)c1.F[B-](F)(F)F | 4.17 ± 0.25 | 3.99 ± 0.24 | 3.28 ± 0.2 | 2.84 ± 0.17 |  |  |  | 
CC#N [acetonitrile] + CCCCn1cc[n+](C)c1.F[B-](F)(F)F | 0.65 ± 0.04 | 0.63 ± 0.04 | 0.64 ± 0.04 | 0.61 ± 0.04 |  |  |  | 
CCC(C)=O [butanone] + CCCCn1cc[n+](C)c1.F[B-](F)(F)F | 1.5 ± 0.09 | 1.48 ± 0.09 | 1.44 ± 0.09 | 1.25 ± 0.08 |  |  |  | 
C1CCCCCC1 [cycloheptane] + CCCCn1cc[n+](C)c1.F[B-](F)(F)F | 78.7 ± 4.7 | 98.2 ± 5.9 | 131 ± 7.9 | 167 ± 10 |  |  |  | 
C1CCCCC1 [cyclohexane] + CCCCn1cc[n+](C)c1.F[B-](F)(F)F | 62.5 ± 3.8 | 48.4 ± 2.9 | 42.7 ± 2.6 | 35.3 ± 2.1 |  |  |  | 
ClCCl [dichloromethane] + CCCCn1cc[n+](C)c1.F[B-](F)(F)F | 0.69 ± 0.04 | 0.72 ± 0.04 | 0.79 ± 0.05 | 0.79 ± 0.05 |  |  |  | 
CCOCC [diethyl ether] + CCCCn1cc[n+](C)c1.F[B-](F)(F)F | 10.2 ± 0.61 | 9.39 ± 0.56 | 8.18 ± 0.49 | 7.42 ± 0.45 |  |  |  | 
CC(C)OC(C)C [diisopropyl ether] + CCCCn1cc[n+](C)c1.F[B-](F)(F)F | 30.7 ± 1.8 | 33.5 ± 2 | 26.9 ± 1.6 | 24.3 ± 1.5 |  |  |  | 
C=O [methanal] + CCCCn1cc[n+](C)c1.F[B-](F)(F)F | 0.22 ± 0.01 | 0.23 ± 0.01 | 0.26 ± 0.02 | 0.25 ± 0.02 |  |  |  | 
CO [methanol] + CCCCn1cc[n+](C)c1.F[B-](F)(F)F | 1.22 ± 0.07 | 1.22 ± 0.07 | 1.22 ± 0.07 | 1.18 ± 0.07 |  |  |  | 
CC1CCCCC1 [methylcyclohexane] + CCCCn1cc[n+](C)c1.F[B-](F)(F)F | 98.3 ± 5.9 | 82.7 ± 5 | 64.2 ± 3.9 | 57.1 ± 3.4 |  |  |  | 
CC1CCCC1 [methylcyclopentane] + CCCCn1cc[n+](C)c1.F[B-](F)(F)F | 62.2 ± 3.7 | 53.5 ± 3.2 | 42.8 ± 2.6 | 55.4 ± 3.3 |  |  |  | 
C[N+](=O)[O-] [nitromethane] + CCCCn1cc[n+](C)c1.F[B-](F)(F)F | 0.59 ± 0.04 | 0.56 ± 0.03 | 0.56 ± 0.03 | 0.56 ± 0.03 |  |  |  | 
CCCCCCCCC [nonane] + CCCCn1cc[n+](C)c1.F[B-](F)(F)F | 956 ± 57 | 793 ± 48 | 612 ± 37 | 464 ± 28 |  |  |  | 
CCCCCCCC [octane] + CCCCn1cc[n+](C)c1.F[B-](F)(F)F | 425 ± 26 | 368 ± 22 | 333 ± 20 | 298 ± 18 |  |  |  | 
CC(C)O [propan-2-ol] + CCCCn1cc[n+](C)c1.F[B-](F)(F)F | 3.2 ± 0.19 | 2.76 ± 0.17 | 2.5 ± 0.15 | 2.15 ± 0.13 |  |  |  | 
c1ccncc1 [pyridine] + CCCCn1cc[n+](C)c1.F[B-](F)(F)F | 1 ± 0.06 | 0.99 ± 0.06 | 0.97 ± 0.06 | 0.94 ± 0.06 |  |  |  | 
ClC(Cl)(Cl)Cl [tetrachloromethane] + CCCCn1cc[n+](C)c1.F[B-](F)(F)F | 5.53 ± 0.33 | 5.44 ± 0.33 | 5.38 ± 0.32 | 5.2 ± 0.31 |  |  |  | 
Cc1ccccc1 [toluene] + CCCCn1cc[n+](C)c1.F[B-](F)(F)F | 4.37 ± 0.26 | 3.96 ± 0.24 | 3.97 ± 0.24 | 3.84 ± 0.23 |  |  |  | 
ClC(Cl)Cl [trichloromethane] + CCCCn1cc[n+](C)c1.F[B-](F)(F)F | 1.04 ± 0.06 | 1.04 ± 0.06 | 1.09 ± 0.07 | 1.09 ± 0.07 |  |  |  | 

Other lines, results leading:

activity coefficient [1] | activity coefficient [2] | activity coefficient [3] | activity coefficient [4] | activity coefficient (303.35 K, Chromatography) | activity coefficient (312.55 K, Chromatography) | activity coefficient (322.55 K, Chromatography) | activity coefficient (332.55 K, Chromatography) | SMILES
8.29 ± 0.5 | 7.53 ± 0.45 | 7.47 ± 0.45 | 6.82 ± 0.41 |  |  |  |  | C#CCCCC [1-hexyne] + CCCCn1cc[n+](C)c1.F[B-](F)(F)F
126 ± 7.6 | 94.3 ± 5.7 | 82.9 ± 5 | 152 ± 9.2 |  |  |  |  | CCC(C)CC [3-methylpentane] + CCCCn1cc[n+](C)c1.F[B-](F)(F)F
2.2 ± 0.13 | 2.17 ± 0.13 | 2.25 ± 0.14 | 2.16 ± 0.13 |  |  |  |  | c1ccccc1 [benzene] + CCCCn1cc[n+](C)c1.F[B-](F)(F)F
4.74 ± 0.29 | 3.82 ± 0.23 | 3.33 ± 0.2 | 2.69 ± 0.16 |  |  |  |  | CCCCO [butan-1-ol] + CCCCn1cc[n+](C)c1.F[B-](F)(F)F
2.19 ± 0.13 | 2.13 ± 0.13 | 2.15 ± 0.13 | 2.06 ± 0.12 |  |  |  |  | CCCC=O [butanal] + CCCCn1cc[n+](C)c1.F[B-](F)(F)F
2.15 ± 0.13 | 1.91 ± 0.11 | 1.7 ± 0.1 | 1.53 ± 0.09 |  |  |  |  | CCO [ethanol] + CCCCn1cc[n+](C)c1.F[B-](F)(F)F
7.25 ± 0.44 | 6.73 ± 0.4 | 6.85 ± 0.41 | 6.51 ± 0.39 |  |  |  |  | CCc1ccccc1 [ethylbenzene] + CCCCn1cc[n+](C)c1.F[B-](F)(F)F
259 ± 16 | 250 ± 15 | 216 ± 13 | 142 ± 8.7 |  |  |  |  | CCCCCCC [heptane] + CCCCn1cc[n+](C)c1.F[B-](F)(F)F
48 ± 2.9 | 39.3 ± 2.4 | 36.3 ± 2.2 | 38.8 ± 2.3 |  |  |  |  | C=CCCCC [hex-1-ene] + CCCCn1cc[n+](C)c1.F[B-](F)(F)F
 |  |  |  | 133 ± 9.1 | 130 ± 9 | 97.4 ± 6.7 | 74.2 ± 5.1 | CCCCCC [hexane] + CCCCn1cc[n+](C)c1.F[B-](F)(F)F
2.6 ± 0.16 | 2.6 ± 0.16 | 2.66 ± 0.16 | 2.53 ± 0.15 |  |  |  |  | CCCC(C)=O [pentan-2-one] + CCCCn1cc[n+](C)c1.F[B-](F)(F)F
2.63 ± 0.16 | 2.57 ± 0.15 | 2.66 ± 0.16 | 2.52 ± 0.15 |  |  |  |  | CCC(=O)CC [pentan-3-one] + CCCCn1cc[n+](C)c1.F[B-](F)(F)F
3.12 ± 0.19 | 2.7 ± 0.16 | 2.43 ± 0.15 | 2.14 ± 0.13 |  |  |  |  | CCCO [propan-1-ol] + CCCCn1cc[n+](C)c1.F[B-](F)(F)F
1.38 ± 0.08 | 1.33 ± 0.08 | 1.29 ± 0.08 | 1.21 ± 0.07 |  |  |  |  | CCC=O [propanal] + CCCCn1cc[n+](C)c1.F[B-](F)(F)F
1.56 ± 0.09 | 1.52 ± 0.09 | 1.54 ± 0.09 | 1.49 ± 0.09 |  |  |  |  | c1ccsc1 [thiophene] + CCCCn1cc[n+](C)c1.F[B-](F)(F)F
9.44 ± 0.57 | 8.9 ± 0.6 | 35.3 ± 2.2 | 59.4 ± 3.6 |  |  |  |  | CCN(CC)CC [triethylamine] + CCCCn1cc[n+](C)c1.F[B-](F)(F)F
